{
  "source": "paper PMC6272914",
  "about": "“Bio-Guided Isolation of Methanol-Soluble Metabolites of Common Spruce (Picea abies) Bark by-Products and Investigation of Their Dermo-Cosmetic Properties” (Molecules, 2016)",
  "target": "collagenase from Clostridium histolyticum",
  "assay": "fluorogenic MMP2 substrate collagenase inhibition assay",
  "format": "biochemical, Hathewaya histolytica",
  "data": [
    {"compound": "O=C1c2c(O)cc(O)cc2O[C@H](c2ccc(O)c(O)c2)[C@H]1O", "note": "[compound 4, taxifolin]", "values": [
      {"measurement": "IC50", "result": 193, "unit": "µM"}
    ]},
    {"compound": "O=C1c2c(O)cc(O)cc2O[C@H](c2ccc(O)c(O[C@@H]3O[C@H](CO)[C@@H](O)[C@H](O)[C@H]3O)c2)[C@H]1O", "note": "[compound 9, taxifolin-3′-O-glucoside]", "values": [
      {"measurement": "IC50", "result": 141, "unit": "µM"}
    ]},
    {"compound": "OC[C@H]1O[C@@H](Oc2cc(O)cc(/C=C/c3ccc(O)cc3)c2)[C@H](O)[C@@H](O)[C@@H]1O", "note": "[compound 6, E-piceid]", "values": [
      {"measurement": "IC50", "result": 259, "unit": "µM"}
    ]},
    {"compound": "OC[C@H]1O[C@@H](Oc2cc(O)cc(/C=C/c3ccc(O)c(O)c3)c2)[C@H](O)[C@@H](O)[C@@H]1O", "note": "[compound 8, E-astringin]", "values": [
      {"measurement": "IC50", "result": 125, "unit": "µM"}
    ]},
    {"compound": "CC(C)C[C@H](NP(=O)(O)O[C@@H]1O[C@@H](C)[C@H](O)[C@@H](O)[C@H]1O)C(=O)N[C@@H](Cc1c[nH]c2ccccc12)C(=O)O", "note": "[PRMD, phosphoramidon, reference compound]", "values": [
      {"measurement": "IC50", "result": 6.9, "unit": "µM"}
    ]}
  ]
}
